In the supplement of paper PMC9663587:

What was measured:
[1] = compound: CCc1cnn2c(NCc3ccc[n+]([O-])c3)cc(N3CCCC[C@H]3CCO)nc12; test: increase in dead-cell fraction, 72 h; higher = more death;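 further: breast cancer cell lines in 384-well plates, stained with Hoechst plus LIVE/DEAD far red dye and imaged, cells above an LDR intensity threshold counted dead, Hoechst-negative corpses included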
Flavopiridol [2] = compound: T1, CN1CC[C@H](c2c(O)cc(O)c3c(=O)cc(-c4ccccc4Cl)oc23)[C@H](O)C1 [Flavopiridol]; test: as above
LEE011/Ribociclib = compound: CN(C)C(=O)c1cc2cnc(Nc3ccc(N4CCNCC4)cn3)nc2n1C1CCCC1 [LEE011/Ribociclib]; test: as above
BSJ-03-123 = compound: CC(=O)c1c(C)c2cnc(Nc3ccc(N4CCN(CCOCCOCCOCCNC(=O)COc5cccc6c5C(=O)N(C5CCC(=O)NC5=O)C6=O)CC4)cn3)nc2n(C2CCCC2)c1=O [BSJ-03-123]; test: as above
[3] = compound: CC(=O)c1c(C)c2cnc(Nc3ccc(N4CCNCC4)cn3)nc2n(C2CCCC2)c1=O; test: as above
[4] = compound: CCN1CCN(Cc2ccc(Nc3ncc(F)c(-c4cc(F)c5nc(C)n(C(C)C)c5c4)n3)nc2)CC1; test: as above
THZ1 [5] = compound: T2, CN(C)C/C=C/C(=O)Nc1ccc(C(=O)Nc2cccc(Nc3ncc(Cl)c(-c4c[nH]c5ccccc45)n3)c2)cc1 [THZ1]; test: as above
Neratinib/HKI272 = compound: CCOc1cc2ncc(C#N)c(Nc3ccc(OCc4ccccn4)c(Cl)c3)c2cc1NC(=O)/C=C/CN(C)C [Neratinib/HKI272]; test: as above
Flavopiridol [6] = compound: T1, Flavopiridol; test: GR value, 72 h; higher = faster growth (1 = untreated, <0 = killing);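 further: breast cancer and non-malignant breast epithelial lines, nine half-log doses, viable cells counted by Hoechst and LIVE/DEAD dye imaging versus time-zero plates and DMSO controls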
[7] = compound: CC(=O)c1c(C)c2cnc(Nc3ccc(N4CCNCC4)cn3)nc2n(C2CCCC2)c1=O; test: as above
THZ531 = compound: CN(C)C/C=C/C(=O)Nc1ccc(C(=O)N2CCC[C@@H](Nc3ncc(Cl)c(-c4c[nH]c5ccccc45)n3)C2)cc1 [THZ531]; test: as above
THZ1 [8] = compound: T2, THZ1; test: as above

SUM185PE
increase in dead-cell fraction ([1]; 0.0001 µM): -0.003
increase in dead-cell fraction ([1]; 0.0003162 µM): 0.0089
increase in dead-cell fraction ([1]; 0.001 µM): -0.0107
increase in dead-cell fraction ([1]; 0.003162 µM): 0.0052
increase in dead-cell fraction ([1]; 0.01 µM): 0.0137
increase in dead-cell fraction ([1]; 0.03162 µM): 0.0687
increase in dead-cell fraction ([1]; 0.1 µM): 0.0528
increase in dead-cell fraction ([1]; 0.3162 µM): 0.0636
increase in dead-cell fraction ([1]; 1 µM): 0.0458
increase in dead-cell fraction (Flavopiridol [2]; 0.0001 µM): 0.0138
increase in dead-cell fraction (Flavopiridol [2]; 0.0003162 µM): 0.0542
increase in dead-cell fraction (Flavopiridol [2]; 0.001 µM): 0.0183
increase in dead-cell fraction (Flavopiridol [2]; 0.003162 µM): -0.0158
increase in dead-cell fraction (Flavopiridol [2]; 0.01 µM): 0.0161
increase in dead-cell fraction (Flavopiridol [2]; 0.03162 µM): 0.0472
increase in dead-cell fraction (Flavopiridol [2]; 0.1 µM): 0.021
increase in dead-cell fraction (Flavopiridol [2]; 0.3162 µM): -0.002
increase in dead-cell fraction (Flavopiridol [2]; 1 µM): 0.117
increase in dead-cell fraction (LEE011/Ribociclib; 0.001 µM): -0.0065
increase in dead-cell fraction (LEE011/Ribociclib; 0.003162 µM): -0.0157
increase in dead-cell fraction (LEE011/Ribociclib; 0.01 µM): -0.0081
increase in dead-cell fraction (LEE011/Ribociclib; 0.03162 µM): -0.0009
increase in dead-cell fraction (LEE011/Ribociclib; 0.1 µM): -0.0246
increase in dead-cell fraction (LEE011/Ribociclib; 0.3162 µM): -0.0198
increase in dead-cell fraction (LEE011/Ribociclib; 1 µM): -0.0191
increase in dead-cell fraction (LEE011/Ribociclib; 3.162 µM): -0.0045
increase in dead-cell fraction (LEE011/Ribociclib; 10 µM): 0.0009
increase in dead-cell fraction (BSJ-03-123; 0.001 µM): -0.0024
increase in dead-cell fraction (BSJ-03-123; 0.003162 µM): -0.0357
increase in dead-cell fraction (BSJ-03-123; 0.01 µM): 0.0044
increase in dead-cell fraction (BSJ-03-123; 0.03162 µM): 0.0319
increase in dead-cell fraction (BSJ-03-123; 0.1 µM): 0.0144
increase in dead-cell fraction (BSJ-03-123; 0.3162 µM): -0.0016
increase in dead-cell fraction (BSJ-03-123; 1 µM): 0.0213
increase in dead-cell fraction (BSJ-03-123; 3.162 µM): 0.0264
increase in dead-cell fraction (BSJ-03-123; 10 µM): 0.0146
increase in dead-cell fraction ([3]; 0.0003162 µM): 0.0082
increase in dead-cell fraction ([3]; 0.001 µM): 0.0038
increase in dead-cell fraction ([3]; 0.003162 µM): 0.0174
increase in dead-cell fraction ([3]; 0.01 µM): -0.0044
increase in dead-cell fraction ([3]; 0.03162 µM): -0.0035
increase in dead-cell fraction ([3]; 0.1 µM): 0.0063
increase in dead-cell fraction ([3]; 0.3162 µM): 0.02
increase in dead-cell fraction ([3]; 1 µM): 0.0086
increase in dead-cell fraction ([3]; 3.162 µM): 0.0015
increase in dead-cell fraction ([4]; 0.001 µM): -0.0051
increase in dead-cell fraction ([4]; 0.003162 µM): 0.0054
increase in dead-cell fraction ([4]; 0.01 µM): 0.0159
increase in dead-cell fraction ([4]; 0.03162 µM): 0.0271
increase in dead-cell fraction ([4]; 0.1 µM): 0.0298
increase in dead-cell fraction ([4]; 0.3162 µM): 0.0411
increase in dead-cell fraction ([4]; 1 µM): 0.0307
increase in dead-cell fraction ([4]; 3.162 µM): 0.0469
increase in dead-cell fraction ([4]; 10 µM): 0.04
increase in dead-cell fraction (THZ1 [5]; 0.0001 µM): -0.0025
increase in dead-cell fraction (THZ1 [5]; 0.0003162 µM): 0.0107
increase in dead-cell fraction (THZ1 [5]; 0.001 µM): -0.0054
increase in dead-cell fraction (THZ1 [5]; 0.003162 µM): 0.0295
increase in dead-cell fraction (THZ1 [5]; 0.01 µM): 0.0559
increase in dead-cell fraction (THZ1 [5]; 0.03162 µM): 0.216
increase in dead-cell fraction (THZ1 [5]; 0.1 µM): 0.224
increase in dead-cell fraction (THZ1 [5]; 0.3162 µM): 0.154
increase in dead-cell fraction (THZ1 [5]; 1 µM): 0.183
increase in dead-cell fraction (Neratinib/HKI272; 0.0003162 µM): 0.0036
increase in dead-cell fraction (Neratinib/HKI272; 0.001 µM): -0.0035
increase in dead-cell fraction (Neratinib/HKI272; 0.003162 µM): 0.0085
increase in dead-cell fraction (Neratinib/HKI272; 0.01 µM): 0.0152
increase in dead-cell fraction (Neratinib/HKI272; 0.03162 µM): 0.0297
increase in dead-cell fraction (Neratinib/HKI272; 0.1 µM): 0.0255
increase in dead-cell fraction (Neratinib/HKI272; 0.3162 µM): 0.0574
increase in dead-cell fraction (Neratinib/HKI272; 1 µM): 0.068
increase in dead-cell fraction (Neratinib/HKI272; 3.162 µM): 0.0933
GR value (Flavopiridol [6]; 0.0001 µM): 1 GR
GR value (Flavopiridol [6]; 0.0003162 µM): 0.883 GR
GR value (Flavopiridol [6]; 0.001 µM): 0.776 GR
GR value (Flavopiridol [6]; 0.003162 µM): 0.933 GR
GR value (Flavopiridol [6]; 0.01 µM): 0.845 GR
GR value (Flavopiridol [6]; 0.03162 µM): 0.58 GR
GR value (Flavopiridol [6]; 0.1 µM): 0.632 GR
GR value (Flavopiridol [6]; 0.3162 µM): 0.458 GR
GR value (Flavopiridol [6]; 1 µM): 0.132 GR
GR value ([7]; 0.0003162 µM): 1 GR
GR value ([7]; 0.001 µM): 1.03 GR
GR value ([7]; 0.003162 µM): 0.956 GR
GR value ([7]; 0.01 µM): 0.996 GR
GR value ([7]; 0.03162 µM): 0.96 GR
GR value ([7]; 0.1 µM): 0.923 GR
GR value ([7]; 0.3162 µM): 0.781 GR
GR value ([7]; 1 µM): 0.86 GR
GR value ([7]; 3.162 µM): 0.754 GR
GR value (THZ531; 0.0001 µM): 1.06 GR
GR value (THZ531; 0.0003162 µM): 1 GR
GR value (THZ531; 0.001 µM): 1.02 GR
GR value (THZ531; 0.003162 µM): 1.02 GR
GR value (THZ531; 0.01 µM): 1.03 GR
GR value (THZ531; 0.03162 µM): 1.06 GR
GR value (THZ531; 0.1 µM): 0.851 GR
GR value (THZ531; 0.3162 µM): -0.187 GR
GR value (THZ531; 1 µM): 0.19 GR
GR value (THZ1 [8]; 0.0001 µM): 1.02 GR
GR value (THZ1 [8]; 0.0003162 µM): 0.945 GR
GR value (THZ1 [8]; 0.001 µM): 1.02 GR
GR value (THZ1 [8]; 0.003162 µM): 0.734 GR
GR value (THZ1 [8]; 0.01 µM): 0.855 GR
GR value (THZ1 [8]; 0.03162 µM): -0.061 GR
GR value (THZ1 [8]; 0.1 µM): 0.0851 GR
GR value (THZ1 [8]; 0.3162 µM): 0.0061 GR
GR value (THZ1 [8]; 1 µM): -0.203 GR
